Measured values: patent US20110319484A1, “NEUROPROTECTIVE COMPOUNDS” (Parque Tecnologico de Ciencias de la Salud, priority 2009, published 2011)

Columns and labels:
[1] = tested on: human neuroblastoma SK-N-MC cells; test: Protection against neuronal death induced by oxidative stress (XXO), WST-1 test; format: cell-based; details: XXO 10 μM-60 mU/ml, 22 h, at 10 μg/ml, protection at 4, 10 and 20 μg/ml
Method: To perform this assay, the inhibition caused by the NST0005 compound [(1S,3R,7S,8S,8aR)-1,2,3,7,8,8a-hexahydro-3,7-dimethyl-8-[2-[(2R,4R)-tetrahydro-4-hydroxy-6-oxo-2H-pyran-2-yl]ethyl-1-naphthalenyl 2,2-dimethyl-propanoate] of cell death caused by the treatment with xanthine/xanthine oxidase (XXO) which, as has already been mentioned, generates oxidative damage (produces free radicals such as hydrogen peroxide, superoxide anion, hydroxyl radical) which triggers cell death, was analyzed. These cells [SK-N-MC], not exceeding 15 passages, were seeded on 96-well plates treated for adherent cells with a cell concentration of 5×10^4 cells/well; 3 wells of the plate were seeded for each condition of the assay.
After 24 h of cell incubation at 37° C. and 5% CO2, the cell treatments were performed with 100 μl of total volume for the following conditions: (i), control (culture medium); (ii), xanthine/xanthine oxidase (XXO) [10 μM-60 mU/ml]; and (iii), XXO [10 μM-60 mU/ml] and NST0005 at different concentrations [4, 10, 20 and 40 μg/ml].
The cells were incubated (at 37° C. and 5% CO2) with these treatments for 22 h, after which time the WST-1 reagent (Roche) was added. […] The formazan which is formed can be detected colorimetrically since it has an absorbance of 440 nm. The reading was taken in a plate reader at 440 nm 2 hours after adding the reagent. […]

zebrafish larvae = test: Inhibition of TBH-induced apoptosis in the brain of the zebrafish embryo (Acridine Orange); format: in vivo, zebrafish (Danio rerio); details: zebrafish larvae 96 hpf, TBH 0.45 mM, compound 1 μg/ml, 24 h
Method: To that end, an assay was performed on zebrafish larvae (96 hours post-fertilization). The fertilized eggs were obtained by a natural birth of adult zebrafish (AB strain) in the inventors' laboratory, carried out according to what is described in The Zebrafish Book [Westerfield, M. (1995) The Zebrafish Book. A Guide for the Laboratory Use of Zebrafish (Danio rerio). 3rd ed., University of Oregon Press, Eugene]. The eggs were collected in the 1st hour after spawning, washed and deposited in a clean Petri dish with embryo water (medium) (4.9 mM NaCl, 0.17 mM KCl, 0.33 mM CaCl.2H2O, 0.33 .mM MgSO4.7H2O, pH 7.2) prepared following the guidelines described in the book Zebrafish. Practical approach [Nusslein-Volhard, C and Dahm, R (2002) Zebrafish. Practical approach. Oxford: Oxford University Press].
The inhibition caused by the NST0003, NST0004 and NST0005 compounds on cell death caused by the tert-butyl hydroperoxide (TBH) compound, which is a pro-oxidizing compound which induces specific neurotoxicity in zebrafish larvae by means of the mechanism of apoptosis, was analyzed.
The larvae (at 96 hours post-fertilization [hpf]) were seeded in 96-well plates (3 larvae/well), performing a triplicate (3 wells) for experimental condition, thus obtaining an intra-assay triplicate. The larvae were treated in a total volume of embryo medium of 100 μl per well for the following conditions: (i) control (embryo medium); (ii), TBH [0.45 mM], which corresponds with the maximum tolerated dose (MTD), which induces neurotoxicity in the larvae but not mortality; and (iii) TBH [0.45 mM] and NST0003, NST0004 and NST0005, all at the concentration of 1 μg/ml. […]
Thus, the control larvae and the treated larvae were immersed in 1 μg/ml of AO in embryo water at 28.5° C. for 60 minutes. […] AO is a fluorescent compound which can be readily measured and quantified with a fluorometer. Therefore, the larvae were anesthetized with tricaine (3-aminobenzoic acid ethyl ester) and homogenized for their subsequent reading in a fluorescence plate reader (excitation: 488 nm; emission: 530 nm). […]

mice = test: Antiepileptic effect against kainate administered to mice; format: in vivo, mice (FVB/NHan); details: KA 25 mg/kg i.p.
Text: It is known that the administration of an excitotoxic substance to animals induces, in some cases, epileptic seizures and convulsions. As a result the inventors decided to investigate if the neuroprotective effect of (1S,3R,7S,8S,8aR)-1,2,3,7,8,8a-hexahydro-3,7-dimethyl-8-[2-[(2R,4R)-tetrahydro-4-hydroxy-6-oxo-2H-pyran-2-yl]ethyl-1-naphthalenyl 2,2-dimethylpropanoate (NST0005) was accompanied by an antiepileptic effect caused by an excitotoxic substance.
All the animals included during the experimental process were 12-week old males of the FVB/NHan strain. The experiments were carried out strictly following the Guidance on the Operation of Animals (Scientific Procedures, Act. 1986). The animals had their respective quarantine period and were treated with maximum precaution to minimize possible contaminations for inoculations and handling.
The animals were inoculated intraperitoneally with 25 mg/kg of kainate (KA) dissolved in PBS. Nine animals were pretreated at 24 and 0.5 hours before the inoculation with KA by means of intraperitoneal injection with PBS (PBS+KA administration regimen) and 9 were pretreated at 24 and 0.5 hours before the inoculation with KA by means of intraperitoneal injection with NST0005 at a dose of 50 mg/kg (NST0005+KA administration regimen). After the inoculation, the animals were individually housed in trays to monitor them. The maximum epilepsy level of the animals according to Racine's scale was recorded during the observation every ten minutes and for at least 120 minutes post-inoculation (m.p.i.).
Comparative studies of the epileptogenic phenomena between the treatment with PBS (PBS+KA) and with NST0005 (NST0005+KA) were subsequently conducted, the data of which are shown in Table 1.

[2] = NST0005 50 mg/kg i.p. at 24 and 0.5 h before KA, n=9

| Structure (SMILES) | maximum reduction of the percentage of cell death relating to death caused by XXO [1] | reduction of apoptosis induced by TBH (zebrafish larvae) | Animals with convulsions (%) (mice; [2]) | Animals with status epilepticus (%) (mice; [2]) | Mortality (%) (mice; [2]) | epilepsy level in Racine's scale reached (mice; NST0005 50 mg/kg i.p. pretreatment, at least 120 min observation) | latency (time of onset of the first convulsions) (mice; NST0005 50 mg/kg i.p. pretreatment, mean±SEM) |
| --- | --- | --- | --- | --- | --- | --- | --- |
| C[C@H]1C=C2C=C[C@H](C)[C@H](CC[C@@H]3C[C@@H](O)CC(=O)O3)[C@H]2[C@@H](OC(=O)C(C)(C)C)C1 [NST0005] | 50% | 34.3±17.3% | 33.3% | 22.2% | 11.1% | < 3 | 108.9 ± 5.9 min |
| CC(C)C(=O)O[C@H]1C[C@@H](C)C=C2C=C[C@H](C)[C@H](CC[C@@H]3C[C@@H](O)CC(=O)O3)[C@H]21 [NST0004] |  | 45.3±18.9% |  |  |  |  |  |
| CCC(=O)O[C@H]1C[C@@H](C)C=C2C=C[C@H](C)[C@H](CC[C@@H]3C[C@@H](O)CC(=O)O3)[C@H]21 [NST0003, (1S,3R,7S,8S,8aR)-1,2,3,7,8,8a-hexahydro-3,7-dimethyl-8-[2-[(2R,4R)-tetrahydro-4-hydroxy-6-oxo-2H-pyran-2-yl]ethyl-1-naphthalenyl propanoate] |  | 50.7±17.1% |  |  |  |  |  |
